How the values were obtained:
[1] = tested on: H146 cells; assay: H146 cell viability, MTT assay; format: cell-based; conditions: Homo sapiens, NCI-H146, 48 h, 48 h exposure
Procedure, shortened: (§1)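 Cells grown in RPMI 1640 with 10% heat-inactivated FBS at 37° C, 5% CO2, exposed 48 h to nine 3.16-fold serial compound dilutions in triplicate. MTT added for 4 h, SDS/HCl solubilisation overnight, absorbance at 540 nm; IC50 by four-parameter fit.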

[2] = biological target: BCLXL (Homo sapiens, UniProt Q07817, V10N/V9A); assay: Fluorescence polarisation assay (PUMA-based probe displacement); format: binding; also: 20 nM protein, 10 nM fluorescent probe
Chain of BCLXL (Q07817 with tags, fused parts or gaps V9A/V10N): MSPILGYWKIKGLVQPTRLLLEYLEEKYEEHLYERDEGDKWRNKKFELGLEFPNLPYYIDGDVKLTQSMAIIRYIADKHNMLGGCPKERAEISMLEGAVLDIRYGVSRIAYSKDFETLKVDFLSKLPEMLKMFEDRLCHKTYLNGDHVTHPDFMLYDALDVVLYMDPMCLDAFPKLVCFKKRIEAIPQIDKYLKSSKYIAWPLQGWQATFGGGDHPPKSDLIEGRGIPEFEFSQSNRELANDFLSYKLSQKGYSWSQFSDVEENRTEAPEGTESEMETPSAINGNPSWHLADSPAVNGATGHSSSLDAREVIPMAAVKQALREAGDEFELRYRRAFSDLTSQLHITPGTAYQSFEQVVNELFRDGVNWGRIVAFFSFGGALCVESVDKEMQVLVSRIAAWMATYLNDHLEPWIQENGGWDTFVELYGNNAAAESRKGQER

[3] = tested on: MOLT-4 cells; assay: MOLT-4 cell viability, MTT assay; format: cell-based; conditions: Homo sapiens, MOLT-4, 48 h, 48 h exposure
Procedure, shortened: as §1

[4] = biological target: T1, Bcl-xL protein (Homo sapiens, UniProt Q07817, N197C); assay: Fluorescence quenching assay (PUMA peptide displacement); format: binding; conditions: 1 nM protein, 400 nM peptide, 2 hours at 23° C.; KI determined from IC50
T1 construct: (2-197)[N197C]; His-His (two His8 stretches joined by a Gly/Ala/Ser/Thr linker)
T1 sequence (Q07817 2-197 N197C): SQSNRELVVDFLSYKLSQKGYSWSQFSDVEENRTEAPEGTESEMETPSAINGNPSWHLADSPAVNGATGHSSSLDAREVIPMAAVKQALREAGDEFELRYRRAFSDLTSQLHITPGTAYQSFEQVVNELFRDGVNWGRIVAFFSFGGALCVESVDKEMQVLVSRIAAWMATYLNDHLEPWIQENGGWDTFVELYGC
From the text: Fluorescence quenching assay measures the change in fluorescence intensity of C-terminally Cy5-labeled BCL-xL protein, His-His-(EK)-hs ? (2-197)[N197C] (UniProtKB® primary accession number Q07817-1) having an amino acid sequence (SEQ ID:03): [[…] […] […] […] […]] which is linked in C-terminal region to the amino acid X which corresponds to a cysteine labeled on the sulfur with Sulfo-Cyanine5 from Lumiprobe GmbH catalogue number 13380, upon binding of a C-terminally labeled peptide derived from PUMA (UniProtKB® primary accession number Q9BXH1) having an aminoacid sequence (SEQ ID:04): [[…]] which is linked in C-terminal region to the amino acid X′ where X′ is cysteine labeled on the sulfur with TQ5WS from AAT Bioquest catalogue number 2079.
The addition of a compound which binds competitively to the same site as the peptide will result in an increase in the fluorescence intensity of the protein due to displacement of the fluorescence quencher.
An 11-point serial dilution of each compound was prepared in DMSO the final buffer conditions were 10 mM 4-(2-hydroxyethyl)-1-piperazineethanesulfonic acid [HEPES], 150 mM NaCl, 0.05% Tween 20, pH 7.4 and 5% DMSO. The final protein concentration in the assay was 1 nM with the peptide present at 400 nM. The experiments were incubated for 2 hours at 23° C. before fluorescence intensity was measured on a Biotek SynergyNeo plate reader (Excitation 620 nm, emission 680 nm). […] The KI values were determined from the IC50 values according to Cer et al, Nucleic Acids Res, 2009, Jul. 1: 37(WebServer issue): W441-W445.

IC50 [1] [µM] | Ki [2] [nM] | IC50 [3] [µM] | Ki [4] [pM] | SMILES
0.0224 | 31 | 3.59 |  | COCCCc1sc(N(CCCOC)c2cc(C)c(Nc3nc4ccccc4s3)nn2)nc1C(=O)O [Example 64, 2-({6-[(1,3-Benzothiazol-2-yl)amino]-5-methylpyridazin-3-yl}(3-methoxypropyl)amino)-5-(3-methoxypropyl)-1,3-thiazole-4-carboxylic acid]
1.16 | 1.9 | 0.527 |  | COCCCN(c1cc(C)c(Nc2nc3ccccc3s2)nn1)c1nc(C(=O)O)c(CCCOC2CCCCC2)s1 [Example 66, 2-({6-[(1,3-Benzothiazol-2-yl)amino]-5-methylpyridazin-3-yl}(3-methoxypropyl)amino)-5-[3-(cyclohexyloxy)propyl]-1,3-thiazole-4-carboxylic acid]
0.71 | < 1 | 0.754 |  | COCCCN(c1cc(C)c(Nc2nc3ccccc3s2)nn1)c1nc(C(=O)O)c(CCCOc2ccccc2F)s1 [Example 67, 2-({6-[(1,3-Benzothiazol-2-yl)amino]-5-methylpyridazin-3-yl}(3-methoxypropyl)amino)-5-[3-(2-fluorophenoxy)propyl]-1,3-thiazole-4-carboxylic acid]
2.6 | 5.7 | 0.279 |  | Cc1cc(N(C)c2nc(C(=O)O)c(N3CC(OCc4ccccc4)C3)s2)nnc1Nc1nc2ccccc2s1 [Example 68, 2-({6-[(1,3-Benzothiazol-2-yl)amino]-5-methylpyridazin-3-yl}(methyl)amino)-5-[3-(benzyloxy)azetidin-1-yl]-1,3-thiazole-4-carboxylic acid]
0.686 | 4.2 | 0.446 |  | Cc1cc(N(C)c2nc(C(=O)O)c(N3CC(Oc4ccccc4)C3)s2)nnc1Nc1nc2ccccc2s1 [Example 69, 2-({6-[(1,3-Benzothiazol-2-yl)amino]-5-methylpyridazin-3-yl}(methyl)amino)-5-(3-phenoxyazetidin-1-yl)-1,3-thiazole-4-carboxylic acid]
> 15 | 30 | > 41.6 |  | Cc1cc(N(C)c2nc(C(=O)O)c(N3CC[C@H](OCc4ccccc4)C3)s2)nnc1Nc1nc2ccccc2s1 [Example 70, 2-({6-[(1,3-Benzothiazol-2-yl)amino]-5-methylpyridazin-3-yl}(methyl)amino)-5-[(3S)-3-(benzyloxy)pyrrolidin-1-yl]-1,3-thiazole-4-carboxylic acid]
> 15 | > 10000 | > 15 |  | Cc1cc(N(C)c2nc(C(=O)O)c(N3CC[C@@H](OCc4ccccc4)C3)s2)nnc1Nc1nc2ccccc2s1 [Example 71, 2-({6-[(1,3-Benzothiazol-2-yl)amino]-5-methylpyridazin-3-yl}(methyl)amino)-5-[(3R)-3-(benzyloxy)pyrrolidin-1-yl]-1,3-thiazole-4-carboxylic acid]
> 15 | < 1 | 2.92 |  | Cc1cc(N(C)c2nc(C(=O)O)c(N3CCC(OCc4ccccc4)CC3)s2)nnc1Nc1nc2ccccc2s1 [Example 75, 2-({6-[(1,3-Benzothiazol-2-yl)amino]-5-methylpyridazin-3-yl}(methyl)amino)-5-[4-(benzyloxy)piperidin-1-yl]-1,3-thiazole-4-carboxylic acid]
≥ 14.9 | 110 | 6.59 |  | Cc1cc(N(C)c2nc(C(=O)O)c(N3CC[C@H](Oc4ccccc4)C3)s2)nnc1Nc1nc2ccccc2s1 [Example 77, 2-({6-[(1,3-Benzothiazol-2-yl)amino]-5-methylpyridazin-3-yl}(methyl)amino)-5-[(3S)-3-phenoxypyrrolidin-1-yl]-1,3-thiazole-4-carboxylic acid]
> 15 | 110 | > 15 |  | Cc1cc(N(C)c2nc(C(=O)O)c(C3CCC3)s2)nnc1Nc1nc2ccccc2s1 [Example 78, 2-({6-[(1,3-Benzothiazol-2-yl)amino]-5-methylpyridazin-3-yl}(methyl)amino)-5-cyclobutyl-1,3-thiazole-4-carboxylic acid]
> 15 | 320 | > 15 |  | Cc1cc(N(C)c2nc(C(=O)O)c(C3CCNCC3)s2)nnc1Nc1nc2ccccc2s1 [Example 83, 2-({6-[(1,3-Benzothiazol-2-yl)amino]-5-methylpyridazin-3-yl}(methyl)amino)-5-(piperidin-4-yl)-1,3-thiazole-4-carboxylic acid]
≥ 12.4 | 160 | 14.6 |  | Cc1cc(N(C)c2nc(C(=O)O)c(C3CCN(Cc4ccccc4)CC3)s2)nnc1Nc1nc2ccccc2s1 [Example 86, 2-({6-[(1,3-Benzothiazol-2-yl)amino]-5-methylpyridazin-3-yl}(methyl)amino)-5-(1-benzylpiperidin-4-yl)-1,3-thiazole-4-carboxylic acid]
> 15 | 530 | > 15 |  | Cc1cc(N(C)c2nc(C(=O)O)c(C3CCN(CC(C)C)CC3)s2)nnc1Nc1nc2ccccc2s1 [Example 87, 2-({6-[(1,3-Benzothiazol-2-yl)amino]-5-methylpyridazin-3-yl}(methyl)amino)-5-[1-(2-methylpropyl)piperidin-4-yl]-1,3-thiazole-4-carboxylic acid]
11 | 2.8 | 1.61 |  | Cc1cc(N(C)c2nc(C(=O)O)c(N3CCC(COc4ccccc4)CC3)s2)nnc1Nc1nc2ccccc2s1 [Example 88, 2-({6-[(1,3-Benzothiazol-2-yl)amino]-5-methylpyridazin-3-yl}(methyl)amino)-5-[4-(phenoxymethyl)piperidin-1-yl]-1,3-thiazole-4-carboxylic acid]
> 15 | 220 | > 15 |  | Cc1cc(N(C)c2nc(C(=O)O)c(C3CCCCC3)s2)nnc1Nc1nc2ccccc2s1 [Example 102, 2-({6-[(1,3-Benzothiazol-2-yl)amino]-5-methylpyridazin-3-yl}(methyl)amino)-5-cyclohexyl-1,3-thiazole-4-carboxylic acid]
> 15 | 380 | > 15 |  | Cc1cc(N(C)c2nc(C(=O)O)c(C3CCCC3)s2)nnc1Nc1nc2ccccc2s1 [Example 105, 2-({6-[(1,3-Benzothiazol-2-yl)amino]-5-methylpyridazin-3-yl}(methyl)amino)-5-cyclopentyl-1,3-thiazole-4-carboxylic acid]
> 15 | 27 | > 15 |  | C=Cc1sc(N(C)c2cc(C)c(Nc3nc4ccccc4s3)nn2)nc1C(=O)O [Example 106, 2-({6-[(1,3-benzothiazol-2-yl)amino]-5-methylpyridazin-3-yl}(methyl)amino)-5-ethenyl-1,3-thiazole-4-carboxylic acid]
 |  |  | 7.4 | CNCCN(C)CCCCN(c1cc(C)c(Nc2nc3ccccc3s2)nn1)c1nc(C(=O)O)c(CCCOc2ccc(C#CCN(C)C)cc2F)s1 [Example 178, 2-[[6-(1,3-Benzothiazol-2-ylamino)-5-methyl-pyridazin-3-yl]-[4-[methyl-[2-(methylamino)ethyl]amino]butyl]amino]-5-[3-[4-[3-(dimethylamino)prop-1-ynyl]-2-fluoro-phenoxy]propyl]thiazole-4-carboxylic acid]
 |  |  | 6.8 | Cc1cc(N(CCCCNCCN2CCCCC2)c2nc(C(=O)O)c(CCCOc3ccc(C#CCN(C)C)cc3F)s2)nnc1Nc1nc2ccccc2s1 [Example 179, 2-[[6-(1,3-Benzothiazol-2-ylamino)-5-methyl-pyridazin-3-yl]-[4-[2-(1-piperidyl)ethylamino]butyl]amino]-5-[3-[4-[3-(dimethylamino)prop-1-ynyl]-2-fluoro-phenoxy]propyl]thiazole-4-carboxylic acid]

SMILES | IC50 [1] [µM] | Ki [2] [nM] | IC50 [3] [µM] | Ki [4] [pM]
Cc1cc(N(C)c2nc(C(=O)O)c(CCCOc3ccc(C#CCN(C)C(=O)OC(C)(C)C)cc3F)s2)nnc1Nc1nc2ccccc2s1 [Example 82, 2-({6-[(1,3-Benzothiazol-2-yl)amino]-5-methylpyridazin-3-yl}(methyl)amino)-5-{3-[4-(3-{[(tert-butoxy)carbonyl](methyl)amino}prop-1-yn-1-yl)-2-fluorophenoxy]propyl}-1,3-thiazole-4-carboxylic acid] | 0.0988 | < 1 | 0.0683 | 
Cc1cc(N(C)c2nc(C(=O)O)c(C3CCN(C(=O)OC(C)(C)C)CC3)s2)nnc1Nc1nc2ccccc2s1 [Example 84, 2-({6-[(1,3-Benzothiazol-2-yl)amino]-5-methylpyridazin-3-yl}(methyl)amino)-5-{1-[(tert-butoxy)carbonyl]piperidin-4-yl}-1,3-thiazole-4-carboxylic acid] | > 15 | 49 | 7.57 | 

From patent publication US12649733B2, “3,6-diamino-pyridazin-3-yl derivatives, pharmaceutical compositions containing them and their uses as pro-apoptotic agents” (LES LABORATOIRES SERVIER, priority 2019, dated 2026)
